Molecules are shown by their SMILES. In brackets after ≈: the same amount, converted by molar mass. Like-named read-outs stand apart in the source and are kept apart here.

For orientation: LD50 means the dose at which mortality reaches 50%.

Series [1] has as its system Sarcoma 180 ascites tumor. The series can be described thus: Therapeutic effect against Sarcoma 180 tumor. In kind it is in vivo, male ddY-strain mice. The note with it: ten days after implantation. Here is the method: Six male ddY-strain mice each having a weight of about 20 g were used for each group as test animals, and 5×10^6 cells of Sarcoma 180 ascites tumor were implanted subcutaneously into the animals at the axilla. 0.2 ml of phosphate buffered saline (hereinafter referred to as PBS) containing DC-92B or DC-92D at various concentrations was administered once intraperitoneally 24 hours after implantation. The composition of PBS was 0.8 g/dl NaCl, 0.02 g/dl KCl, […] Na2 HPO4 and 0.02 g/dl KH2 PO4 (pH 7.2).
(§1) For comparison, 0.2 ml of PBS containing mitomycin C was intraperitoneally administered to a group of animals 24 hours after tumor implantation.

Series [2] relates to lymphocytic leukemia P388 tumor. The series can be described thus: Therapeutic effect against lymphocytic leukemia P388 tumor. In kind it is in vivo, male CDF1 mice. Here is the method:
Five male CDF1 mice each having a weight of about 22 g were used for each group as test animals, and 1×10^6 cells of lymphocytic leukemia P388 tumor were implanted intraperitoneally into the test animals. 0.2 ml of PBS containing DC-92B or DC-92D was administered once intraperitoneally 24 hours after implantation.
as §1
*Continuous administration for five days

For series [3], the system named is Bacillus subtilis No. 10707. The series can be described thus: Minimum inhibitory concentration, agar dilution method. The series is classed as cell-based. On the procedure:
(§2) (A) Minimum Inhibitory Concentration Against Various Bacteria (MIC: μg/ml)
(§3) The antibacterial activity was evaluated by the agar dilution method using a medium (pH 7) prepared by dissolving 3 g of Bacto-Tryptone (Difco Laboratories), 3 g of meat extract, 1 g of yeast extract, 1 g of glucose and 16 g of agar in 1 liter of water.

Series [4] has as its system Staphylococcus aureus ATCC 6538P. Described as above. The series is classed as cell-based. To be noted: ATCC6538P, pH 7, read-out: Minimum Inhibitory Concentration (MIC). Here is the method:
as §2, §3

Series [5] has as its system Shigella sonnei ATCC 9290. The description is as above. In kind it is cell-based. Here is the method:
as §2, §3

Series [6] concerns Salmonella typhosa ATCC 9992. The description is as above. In kind it is cell-based. To be noted: Salmonella enterica. Here is the method:
as §2, §3

For a further series, the system named is Escherichia coli ATCC 26. The description is as above. In kind it is cell-based. On the procedure:
as §2, §3

Series [7] deals with Klebsiella pneumoniae ATCC 10031. Described as above. In kind it is cell-based. On the procedure: as §2, §3
A further series can be described thus: in vivo. To be noted: mouse, ip, mice, intraperitoneal administration, read-out: acute toxicity value (LD50).
A further series can be described thus: Basicity. The series is classed as physicochemical.
Where [8] appears, read: 6.0 mg/kg, i.p. 24 h after implantation.
[9] abbreviates: methanol, ethanol, acetone, chloroform, ethyl acetate, toluene and dimethylsulfoxide.
[10] abbreviates: 0.31 mg/kg, once i.p. 24 h after implantation.
Where [11] appears, read: 0.0125 mg/kg, continuous administration for five days.
Setting [12] is: 0.025 mg/kg, continuous administration for five days.
[13] abbreviates: 0.15 mg/kg, once i.p. 24 h after implantation.
Setting [14] is: 1.563 mg/kg, once i.p. 24 h after implantation.
The mark [15] stands for this setting: 3.125 mg/kg, once i.p. 24 h after implantation.
Where [16] appears, read: 6.25 mg/kg, once i.p. 24 h after implantation.
The mark [17] stands for this setting: 0.39 mg/kg, once i.p. 24 h after implantation.
Where [18] appears, read: 0.78 mg/kg, once i.p. 24 h after implantation.
Setting [19] is: 1.56 mg/kg, once i.p. 24 h after implantation.
The mark [20] stands for this setting: 3.13 mg/kg, once i.p. 24 h after implantation.

On to `CO[C@@]12[C@H](COC(N)=O)C3=C(C(=O)C(C)=C(N)C3=O)N1C[C@@H]1N[C@@H]12` [Mitomycin C, reference compound], for which, in series [1] (setting [8]), the Average tumor volume came out at 743.8 mm^3 and the “T/C (average tumor volume)” value is reported as 0.35. For the same compound, in [2] (setting [8]), the “Increased Life Span (T/C)” value came to 1.63 and the “Survival days (mean)” value is 17.9 days.

Turning to `Cc1cc2c(c3oc(C4(C)OC4C4OC4(C)C)cc(=O)c13)C(=O)c1c(O)c(C3CC(C)(N(C)C)C(O)C(C)(O)O3)cc(C3CC(N(C)C)C(O)C(C)O3)c1C2=O` (stereo not drawn) [DC-92B], the MIC is 0.15 µg/mL (≈ 0.193 µM) in [3] (NO.10707, pH 7, read-out: Minimum Inhibitory Concentration (MIC)); 0.04 µg/mL (≈ 0.0515 µM) in [4]; 10 µg/mL (≈ 12.9 µM) in series [5] (ATCC9290, pH 7, read-out: Minimum Inhibitory Concentration (MIC)); 40 µg/mL (≈ 51.5 µM) in series [6] (pH 7, read-out: Minimum Inhibitory Concentration (MIC)); 10 µg/mL (≈ 12.9 µM) in the series on Escherichia coli ATCC 26 (ATCC26, pH 7, read-out: Minimum Inhibitory Concentration (MIC)); 2.5 µg/mL (≈ 3.22 µM) in series [7] (ATCC10031, pH 7, read-out: Minimum Inhibitory Concentration (MIC)). In addition, in “in vivo”, the LD50 is roughly 0.31 mg/kg. Moreover, the Solubility entry in “Solubility” (setting [9]) was “Soluble”; in the series “Solubility” (water and hexane), “sparingly soluble”. Moreover, the Basicity entry in the series “Basicity” is recorded as “Weakly basic”. In addition, in [1] (setting [10]), the Average tumor volume is listed as 828.6 mm^3. For the same compound, the “T/C (average tumor volume)” value in series [1] (setting [10]) is listed as 0.39. For the same compound, the “Increased Life Span (T/C)” value is 1.41 in series [2] (setting [11]), 1.41 in [2] (setting [12]) and 1.47 in series [2] (setting [13]). The entries for the “Survival days (mean)” value in series [2] (setting [11]), in [2] (setting [12]) and in [2] (setting [13]) were 15.5 days, 15.5 days and 16.2 days, respectively.

Regarding `Cc1cc2c(c3oc(C4(C)OC4C4OC4(C)C)cc(=O)c13)C(=O)c1c(O)c(C3CC(C)(N(C)C)C(O)C(C)(O)O3)cc(C3=CC(N(C)C)C(O)C(C)O3)c1C2=O` (stereo not drawn) [DC-92D], the MIC in series [3] (NO.10707, agar dilution, pH 7, read-out: Minimum Inhibitory Concentration (MIC)) worked out at 3 µg/mL (≈ 3.87 µM); in series [4] (agar dilution) it was 1.5 µg/mL (≈ 1.94 µM); in series [5] (ATCC9290, agar dilution, pH 7, read-out: Minimum Inhibitory Concentration (MIC)), 100 µg/mL (≈ 129 µM); in series [6] (agar dilution, pH 7, read-out: Minimum Inhibitory Concentration (MIC)), 100 µg/mL (≈ 129 µM); with Escherichia coli ATCC 26 (ATCC26, agar dilution, pH 7, read-out: Minimum Inhibitory Concentration (MIC)), 100 µg/mL (≈ 129 µM); in series [7] (ATCC10031, agar dilution, pH 7, read-out: Minimum Inhibitory Concentration (MIC)), 25 µg/mL (≈ 32.3 µM). Moreover, the 50% lethal dose (LD50) in the series “in vivo” was roughly 5.6 mg/kg. Besides, the Solubility entry in “Solubility” (setting [9]) is listed as “Soluble”; in the series “Solubility” (water and hexane), “sparingly soluble”. Further, the Basicity result in the series “Basicity” was “Weakly basic”. The Average tumor volume in series [1] (setting [14]) was found to be 1444.8 mm^3; in series [1] (setting [15]) it was 679.9 mm^3; in series [1] (setting [16]) it was 764.9 mm^3. Moreover, the “T/C (average tumor volume)” value in series [1] (setting [14]) is 0.68; in series [1] (setting [15]), 0.32; in [1] (setting [16]), 0.36. Also, the “Increased Life Span (T/C)” value stood at 1.04 in series [2] (setting [17]); 1.58 in [2] (0.75 mg/kg, continuous administration for five days); 1.17 in series [2] (setting [18]); 1.15 in series [2] (setting [19]); 0.69 in [2] (setting [20]). In addition, the “Survival days (mean)” value turned out to be 11.4 days in series [2] (setting [17]); 17.4 days in series [2] (0.75 mg/kg, 120 h); 12.9 days in [2] (setting [18]); 12.7 days in [2] (setting [19]); 7.6 days in series [2] (setting [20]).

(Values after US4847387A, “Antibiotic compounds DC-92B and DC-92D” (Kyowa Hakko Kogyo Co., Ltd., priority 1986, dated 1989).)
